Assay results from patent US12351597B2, “Substituted biphenyl or phenylheteroaryl-mannosides as antagonists of FimH” (GLAXOSMITHKLINE INTELLECTUAL PROPERTY DEVELOPMENT LIMITED, priority 2019, dated 2025).

What was measured:
FimH = biological target: T1, FimH (Escherichia coli, UniProt Q1R2J4); test: Hemagglutination inhibition assay (HAI); format: cell-based; conditions: HAI titer / EC>90: concentration reducing bacterial agglutination of guinea pig red blood cells by >90%; UTI89 bacteria
T1 construct: endogenous in cells; host or cells: E. coli UTI89 whole bacteria (piliated), with guinea pig red blood cells
Description: “HAI titer or EC>90” is that concentration of the FimH inhibitor/antagonist which reduces the bacterial agglutination of guinea pig red blood cells by greater than 90%.
The activities of the Examples 1-40 compounds above as FimH antagonists/inhibitors were obtained by the following assay(s), and values are provided in Table 1. The values not provided mean that the activities have not yet been tested.
Hemagglutination Inhibition Assay (HAI)
The hemagglutination inhibition (HAI) assay was performed with UTI89 bacteria and guinea pig red blood cells, as previously described (S. J. Hultgren, W. R. Schwan, A. J. Schaeffer, J. L. Duncan Infect. Immun. 1986, 54, 613-620 and Jarvis, C.; Han, Z.; Kalas, V.; Klein, R.; Pinkner, J. S.; Ford, B.; Binkley, J.; Cusumano, C. K.; Cusumano, Z.; Mydock-McGrane, L.; Hultgren, S. J.; Janetka, J. W., ChemMedChem 2016, 11, 367-373). Values not listed were not tested.

[1] = Rat pharmacokinetics (IV infusion 1 mg/kg, then PO 5 mg/kg; blood and urine); format: in vivo, Male Wistar Han rats; conditions: for PK DNAUC h * uM (DNAUC oral, dose normalized): PO 5 mg/kg, blood, AUC divided by dose in mg/kg; for bioavailability: male, Wistar Han, whole blood, oral bioavailability from dose-normalized AUC, PO 5 mg/kg vs IV infusion 1 mg/kg
Description: General Assays for Obtaining AUC Oral h*μm, % F, and Ue % PO Values
Male Wistar Han rats were purchased from Vital River Laboratory Animal Technology Co. Ltd (Beijing, China). The animals were approx. 6-8 weeks old with body weights of 200-300 g on the dosing date. The animals were housed in a 12-hour light/12-hour dark cycle environment and had free access to food and water. All animals were fed prior to dosing. Studies were approved by the Pharmaron Institutional Animal Care and Use Committee (IACUC).
Test article was administered as an intravenous infusion for 1 hour (1 mg/kg) at 5 mL/kg/h. After 48 h, animals received a single oral dose (5 mg/kg, free form) at a dose volume of 10 mL/kg, respectively. Blood samples were collected at various time points after IV infusion and PO administrations. Urine samples were collected at various time points after IV infusion and PO administrations (for some compounds).
Test article was dissolved in DMSO with vortexing and sonification to obtain a stock solution. An aliquot of the stock solution was mixed with 10% HP-β-CD in saline with vortexing to obtain a solution with concentration at 0.2 mg/mL of test article.
Test article was added into 1% Methyl Cellulose with vortexing and sonication to obtain a homogeneous suspension with concentration at 0.5 mg/mL of test article.
For IV infusion (1 mg/kg) administration, blood samples were collected from each animal at 0, 0.25, 0.5, 0.75, 1, 1.08, 1.25, 1.5, 1.75, 2, 3, 5, 8, 12, 24 hour post-dose.
For PO (5 mg/kg) administration, blood samples were collected from each animal at 0, 0.25, 0.5, 1, 1.5, 2, 3, 4, 6, 8, 12, 24 hour post-dose.
Blood samples (50 μL) were collected from each animal via jugular vein. These blood samples were placed into tubes containing K2EDTA. Whole blood was mixed with same volume of water and inverted several times. The blood samples were stored at −75±15° C. until analysis.
For IV infusion (1 mg/kg) administration, urine samples were collected from each animal at 0-4, 4-8, 8-12, 12-24 hour post-dose.
For PO (5 mg/kg) administration, urine samples were collected (for some compounds) from each animal at 0-4, 4-8, 8-12, 12-24 hour post-dose.
55 μL of standards, 55 μL of QC samples or 55 μL of unknown samples (50 μL of blood or urine with 5 μL 50% acetonitrile) were mixed to 200 μL of acetonitrile containing IS (dexamethasone) to precipitate proteins. Then the samples were vortexed for 30 sec. After centrifugation at 4° C., 4700 rpm for 30 min, and 5 μL of the supernatant was injected into the LC-MS/MS system for quantitative analysis.
Test article blood and urine concentrations for each animal following IV infusion at 1 mg/kg and PO at 5 mg/kg were used to calculate pharmacokinetic parameters by employing a non-compartmental analysis (Phoenix™ WinNonlin® 7.0). The linear trapezoidal algorithm was used for AUC calculation. • AUC oral h*uM: Area under the curve (AUC) of drug concentration in blood vs. time (units: h*μM) following oral administration • DNAUC Dose normalized area under the curve is calculate by divided the area under the curve divided by the dose in the mg/kg • % F: Oral bioavailability (%) derived from the ratio of dose-normalized AUC following PO and IV administration • Ue % PO: Percentage of oral dose eliminated unchanged in urine or an estimate of that parameter generated from using the percentage of the iv dose eliminated in the urine times the oral bioavailability Production Methods: […]

Row | Structure (SMILES) | HAI nM (FimH) | PK DNAUC h * uM (DNAUC oral, dose normalized) [1] | bioavailability [1]
1 | Cc1cc(-c2cc(F)cc(C#N)c2)ccc1O[C@H]1O[C@H](CO)[C@@H](O)[C@H](O)[C@@H]1O [Example 4, 5-Fluoro-3′-methyl-4′-(((2R,3S,4S,5S,6R)-3,4,5-trihydroxy-6-(hydroxymethyl)tetrahydro-2H-pyran-2-yl)oxy)-[1,1′-biphenyl]-3-carbonitrile] | “+++” (50-200) | “+++” (>0.2 h · μM) | > 30%
2 | Cc1cc(-c2cc(C(F)(F)F)ccn2)ccc1O[C@H]1O[C@H](CO)[C@@H](O)[C@H](O)[C@@H]1O [Example 5, (2R,3S,4S,5S,6R)-2-(hydroxymethyl)-6-(2-methyl-4-(4-(trifluoromethyl)pyridin-2-yl)phenoxy)tetrahydro-2H-pyran-3,4,5-triol] | “+++” (50-200) | “+++” (>0.2 h · μM) | > 30%
3 | Cc1cc(-c2cnc(C(F)(F)F)nc2)ccc1O[C@H]1O[C@H](CO)[C@@H](O)[C@H](O)[C@@H]1O [Example 16] | “++++” (<50) | “++” (0.1 ≤ × ≤ 0.2h · μM) | 
4 | OC[C@H]1O[C@H](Oc2c(F)cc(-c3ccc(C(F)(F)F)cn3)cc2C(F)(F)F)[C@@H](O)[C@@H](O)[C@@H]1O [Example 28] | “++++” (<50) | “+++” (>0.2 h · μM) | 10 to 30%
